Measured values published in ChEMBL document CHEMBL1153563, “Comparative in vitro activities of caspofungin and micafungin, determined using the method of the European Committee on Antimicrobial Susceptibility Testing, against yeast isolates obtained in France in 2005-2006” (2008).
≈ marks a conversion by molar mass, not a printed value. *1 amine or outer side, *2 acyl side, *3 side chain or, on linkers, in order; H or OH if unused. Where a SMILES comes first, the peptide text is derived from it. Bridges are numbered along the chain shown (N, C = ends). [ ]: non-standard residue; d: D form. The star is where a group is joined. hTyr(3S-OH,4S-OH,3'-OSO3H) = N[C@H](C(=O)O)[C@H](O)[C@@H](O)c1ccc(O)c(OS(=O)(=O)O)c1; Orn(4R-OH,5R-OH) = O=C([C@H](C[C@@H](O)[C@@H](O)N[*:3])N[*:1])[*:2]; Pro(3S-OH,4S-Me) = C[C@H]1CN[C@H](C(=O)O)[C@H]1O; X1 = CCCCCOc1ccc(-c2cc(-c3ccc(C(=O)*)cc3)no2)cc1; Gln(3R-OH) = NC(=O)C[C@@H](O)[C@H](N)C(=O)O; Hyp = O=C(O)[C@@H]1C[C@@H](O)CN1

Experiments:
Format in all cases: functional
[1] = tested on: Meyerozyma caribbica; assay: Antifungal activity against Candida fermentati after 24 to 48 hrs by AFST-EUCAST based broth microdilution method
[2] = tested on: Rhodotorula mucilaginosa; assay: Antifungal activity against Rhodotorula mucilaginosa after 24 to 48 hrs by AFST-EUCAST based broth microdilution method
[3] = tested on: Meyerozyma guilliermondii; assay: Antifungal activity against Candida guilliermondii after 24 to 48 hrs by AFST-EUCAST based broth microdilution method
[4] = tested on: Geotrichum; assay: Antifungal activity against Geotrichum after 24 to 48 hrs by AFST-EUCAST based broth microdilution method
[5] = tested on: Candida africana; assay: Antifungal activity against Candida africana after 24 to 48 hrs by AFST-EUCAST based broth microdilution method
[6] = tested on: Cyberlindnera jadinii; assay: Antifungal activity against Candida utilis after 24 to 48 hrs by AFST-EUCAST based broth microdilution method; conditions: Williopsis jadinii
[7] = tested on: Zygosaccharomyces; assay: Antifungal activity against Zygosaccharomyces after 24 to 48 hrs by AFST-EUCAST based broth microdilution method
[8] = tested on: Wickerhamomyces anomalus; assay: Antifungal activity against Candida pelliculosa after 24 to 48 hrs by AFST-EUCAST based broth microdilution method; conditions: Hansenula anomala
[9] = tested on: Nakaseomyces glabratus; assay: Antifungal activity against Candida glabrata after 24 to 48 hrs by AFST-EUCAST based broth microdilution method
[10] = tested on: Candida parapsilosis; assay: Antifungal activity against Candida parapsilosis ATCC 22019 after 24 to 48 hrs by AFST-EUCAST based broth microdilution method; conditions: Lodderomyces parapsilosis
[11] = tested on: [Candida] haemuloni; assay: Antifungal activity against Candida haemulonii after 24 to 48 hrs by AFST-EUCAST based broth microdilution method; conditions: Candidozyma haemuli
[12] = tested on: Trichosporon; assay: Antifungal activity against Trichosporon after 24 to 48 hrs by AFST-EUCAST based broth microdilution method
[13] = tested on: [Candida] inconspicua; assay: Antifungal activity against Candida inconspicua after 24 to 48 hrs by AFST-EUCAST based broth microdilution method; conditions: Pichia inconspicua
[14] = tested on: Debaryomyces hansenii; assay: Antifungal activity against Candida famata after 24 to 48 hrs by AFST-EUCAST based broth microdilution method
[15] = tested on: Clavispora lusitaniae; assay: Antifungal activity against Candida lusitaniae after 24 to 48 hrs by AFST-EUCAST based broth microdilution method
[16] = tested on: Pichia kudriavzevii; assay: Antifungal activity against Candida krusei ATCC 6258 after 24 to 48 hrs by AFST-EUCAST based broth microdilution method
[17] = tested on: Candida albicans; assay: Antifungal activity against Candida albicans after 24 to 48 hrs by AFST-EUCAST based broth microdilution method
[18] = tested on: Candida dubliniensis; assay: Antifungal activity against Candida dubliniensis after 24 to 48 hrs by AFST-EUCAST based broth microdilution method
[19] = tested on: Yarrowia lipolytica; assay: Antifungal activity against Candida lipolytica after 24 to 48 hrs by AFST-EUCAST based broth microdilution method
[20] = tested on: Saccharomyces cerevisiae; assay: Antifungal activity against Saccharomyces cerevisiae after 24 to 48 hrs by AFST-EUCAST based broth microdilution method
[21] = tested on: Candida tropicalis; assay: Antifungal activity against Candida tropicalis after 24 to 48 hrs by AFST-EUCAST based broth microdilution method
[22] = tested on: Cryptococcus neoformans; assay: Antifungal activity against […] after 24 to 48 hrs by AFST-EUCAST based broth microdilution method
[23] = tested on: [Candida] intermedia; assay: Antifungal activity against Candida intermedia after 24 to 48 hrs by AFST-EUCAST based broth microdilution method; conditions: Sungouiella intermedia
[24] = tested on: Diutina rugosa; assay: Antifungal activity against Candida rugosa after 24 to 48 hrs by AFST-EUCAST based broth microdilution method
[25] = tested on: Pichia norvegensis; assay: Antifungal activity against Candida norvegensis after 24 to 48 hrs by AFST-EUCAST based broth microdilution method
[26] = tested on: Kodamaea ohmeri; assay: Antifungal activity against Kodamaea ohmeri after 24 to 48 hrs by AFST-EUCAST based broth microdilution method
[27] = tested on: Kluyveromyces marxianus; assay: Antifungal activity against Candida kefyr after 24 to 48 hrs by AFST-EUCAST based broth microdilution method
[28] = tested on: Kluyveromyces lactis; assay: Antifungal activity against Candida sphaerica after 24 to 48 hrs by AFST-EUCAST based broth microdilution method
[29] = tested on: Pichia fermentans; assay: Antifungal activity against Candida lambica after 24 to 48 hrs by AFST-EUCAST based broth microdilution method
[30] = tested on: Nakaseomyces nivariensis; assay: Antifungal activity against Candida nivariensis after 24 to 48 hrs by AFST-EUCAST based broth microdilution method
[31] = tested on: Cyberlindnera saturnus; assay: Antifungal activity against Williopsis saturnus after 24 to 48 hrs by AFST-EUCAST based broth microdilution method

With `CCCCCOc1ccc(-c2cc(-c3ccc(C(=O)N[C@H]4C[C@@H](O)[C@@H](O)NC(=O)[C@@H]5[C@@H](O)[C@@H](C)CN5C(=O)[C@H]([C@H](O)CC(N)=O)NC(=O)[C@H]([C@H](O)[C@@H](O)c5ccc(O)c(OS(=O)(=O)O)c5)NC(=O)[C@@H]5C[C@@H](O)CN5C(=O)[C@H]([C@@H](C)O)NC4=O)cc3)no2)cc1` [MICAFUNGIN] (X1-[Orn(4R-OH,5R-OH)]T[Hyp][hTyr(3S-OH,4S-OH,3'-OSO3H)][Gln(3R-OH)][Pro(3S-OH,4S-Me)]; lactam 1-C) the MIC50 [1] was 1 mg/L (≈ 0.787 µM), the MIC90 [1] was 1 mg/L (≈ 0.787 µM) and the MIC50 [2] was 16 mg/L (≈ 12.6 µM). The MIC50 [3] was 1 mg/L (≈ 0.787 µM), the MIC90 [3] was 2 mg/L (≈ 1.57 µM) and the MIC50 [4] was 0.25 mg/L (≈ 0.197 µM). It also gave an MIC90 [4] of 16 mg/L (≈ 12.6 µM), an MIC50 [5] of 0.06 mg/L (≈ 0.0472 µM) and an MIC90 [5] of 1 mg/L (≈ 0.787 µM). The MIC50 [6] was 0.06 mg/L (≈ 0.0472 µM), the MIC90 [6] was 1 mg/L (≈ 0.787 µM) and the MIC50 [7] was 0.25 mg/L (≈ 0.197 µM). The MIC90 [7] was 16 mg/L (≈ 12.6 µM), the MIC50 [8] was 0.06 mg/L (≈ 0.0472 µM) and the MIC90 [8] was 1 mg/L (≈ 0.787 µM). The MIC50 [9] was 0.03 mg/L (≈ 0.0236 µM), the MIC90 [9] was 0.06 mg/L (≈ 0.0472 µM) and the MIC50 [10] was 2 mg/L (≈ 1.57 µM). The MIC90 [10] was 2 mg/L (≈ 1.57 µM), the MIC50 [11] was 0.25 mg/L (≈ 0.197 µM) and the MIC90 [11] was 0.25 mg/L (≈ 0.197 µM). It also gave an MIC50 [12] of 16 mg/L (≈ 12.6 µM), an MIC50 [13] of 0.06 mg/L (≈ 0.0472 µM) and an MIC90 [13] of 1 mg/L (≈ 0.787 µM). It also gave an MIC50 [14] of 0.06 mg/L (≈ 0.0472 µM), an MIC90 [14] of 1 mg/L (≈ 0.787 µM) and an MIC50 [15] of 0.25 mg/L (≈ 0.197 µM). The MIC90 [15] was 0.5 mg/L (≈ 0.394 µM), the MIC50 [16] was 0.25 mg/L (≈ 0.197 µM) and the MIC90 [16] was 0.25 mg/L (≈ 0.197 µM). For the same molecule, the MIC50 [17] was 0.03 mg/L (≈ 0.0236 µM), the MIC90 [17] was 0.06 mg/L (≈ 0.0472 µM) and the MIC50 [18] was 0.06 mg/L (≈ 0.0472 µM). It also gave an MIC90 [18] of 1 mg/L (≈ 0.787 µM), an MIC50 [19] of 0.06 mg/L (≈ 0.0472 µM) and an MIC90 [19] of 1 mg/L (≈ 0.787 µM). It also gave an MIC50 [20] of 0.25 mg/L (≈ 0.197 µM), an MIC90 [20] of 16 mg/L (≈ 12.6 µM) and an MIC50 [21] of 0.06 mg/L (≈ 0.0472 µM). For the same molecule, the MIC90 [21] was 0.125 mg/L (≈ 0.0984 µM), the MIC50 [22] was 16 mg/L (≈ 12.6 µM) and the MIC90 [22] was 16 mg/L (≈ 12.6 µM). The MIC50 [23] was 0.06 mg/L (≈ 0.0472 µM), the MIC90 [23] was 1 mg/L (≈ 0.787 µM) and the MIC50 [24] was 0.06 mg/L (≈ 0.0472 µM). The MIC90 [24] was 1 mg/L (≈ 0.787 µM), the MIC50 [25] was 0.06 mg/L (≈ 0.0472 µM) and the MIC90 [25] was 1 mg/L (≈ 0.787 µM). It also gave an MIC50 [26] of 0.25 mg/L (≈ 0.197 µM), an MIC90 [26] of 16 mg/L (≈ 12.6 µM) and an MIC50 [27] of 0.125 mg/L (≈ 0.0984 µM). For the same molecule, the MIC90 [27] was 0.25 mg/L (≈ 0.197 µM), the MIC50 [28] was 0.06 mg/L (≈ 0.0472 µM) and the MIC90 [28] was 1 mg/L (≈ 0.787 µM). The MIC50 [29] was 0.06 mg/L (≈ 0.0472 µM), the MIC90 [29] was 1 mg/L (≈ 0.787 µM) and the MIC50 [30] was 0.06 mg/L (≈ 0.0472 µM). The MIC90 [30] was 1 mg/L (≈ 0.787 µM), the MIC50 [31] was 0.25 mg/L (≈ 0.197 µM) and the MIC90 [31] was 16 mg/L (≈ 12.6 µM).
